According to ChEMBL document CHEMBL1130892, “Novel cytokine release inhibitors. Part I: Triterpenes” (Bioorg Med Chem Lett, 1998):

Columns and labels:
[1] = Inhibitory activity against LPS-stimulated 1L-1beta release by cultured human monocytes; type: functional
Rattus norvegicus = test: Compound was tested for reduction of streptococcal cell wall(SCW) in rats at a dose of 0.67 mg/kg; type: functional
Caspase-1 = target: T1, Caspase-1 (Homo sapiens, UniProt P29466); test: Inhibitory activity against IL-1 beta converting enzyme was evaluated.
T1 sequence (P29466 whole entry): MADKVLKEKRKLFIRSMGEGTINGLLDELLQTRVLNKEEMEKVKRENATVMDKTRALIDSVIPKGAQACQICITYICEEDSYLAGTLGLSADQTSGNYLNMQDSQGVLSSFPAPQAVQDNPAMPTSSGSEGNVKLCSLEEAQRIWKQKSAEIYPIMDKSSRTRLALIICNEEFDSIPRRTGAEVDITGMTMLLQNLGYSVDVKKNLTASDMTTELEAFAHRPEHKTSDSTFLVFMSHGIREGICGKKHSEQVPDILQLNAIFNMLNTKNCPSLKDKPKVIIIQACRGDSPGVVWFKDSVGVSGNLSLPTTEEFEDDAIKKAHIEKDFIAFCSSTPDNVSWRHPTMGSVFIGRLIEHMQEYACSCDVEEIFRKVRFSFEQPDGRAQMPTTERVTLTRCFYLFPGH

[2] = Inhibitory activity against LPS-stimulated IL1-beta release by cultured human monocytes at a concentration 1000 nM; type: functional

| SMILES | IC50 [1] | also measured |
| --- | --- | --- |
| COC(=O)[C@]1(C)CC[C@]2(C)CC[C@]3(C)C4=CCc5c(cc(O)c(O)c5C)[C@]4(C)CC[C@@]3(C)[C@@H]2C1 [PRISTIMEROL] | 260 nM |  |
| COc1ccc2c(c1)c(CC(=O)O)c(C)n2C(=O)c1ccc(Cl)cc1 [INDOMETHACIN] |  | SCW reduction (Rattus norvegicus): 70% |
| COC(=O)[C@]1(C)CC[C@]2(C)CC[C@]3(C)C4=CCc5c(cc(OC(C)=O)c(OC(C)=O)c5C)[C@]4(C)CC[C@@]3(C)[C@@H]2C1 [PRISTIMEROL DIACETATE] | 79 nM |  |
| CC1=C(O)C(=O)C=C2C1=CC=C1[C@@]2(C)CC[C@@]2(C)[C@@H]3C[C@](C)(C(=O)O)CC[C@]3(C)CC[C@]12C [CELASTROL] | 40 nM |  |
| O=C1C=CC(=O)C=C1 [BENZOQUINONE] |  | IC50 (Caspase-1): 3 µM |
| CC1=C(O)C(=O)C=C2C1=CC=C1[C@@]2(C)CC[C@@]2(C)[C@@H]3C[C@@H](C)C(=O)C[C@]3(C)CC[C@]12C [TINGENONE] | 58 nM |  |
| COC(=O)[C@]1(C)CC[C@]2(C)CC[C@]3(C)C4=CCc5c(cc(OC)c(OC)c5C)[C@]4(C)CC[C@@]3(C)[C@@H]2C1 |  | inhibition at 1 µM [2]: 8% |
| COC(=O)[C@]1(C)CC[C@]2(C)CC[C@]3(C)C4=CC=C5C(=CC(=O)C(O)=C5C)[C@]4(C)CC[C@@]3(C)[C@@H]2C1 [PRISTIMERIN] | 56 nM |  |
